These results are taken from patent US20200055817A1 (AbbVie Deutschland GmbH & Co. KG, priority 2016, published 2020).

Holding throughout (assay type): cell-based
In one test the target is T1, S1P4 (Homo sapiens, UniProt O95977).
T1 sequence (O95977 1-384): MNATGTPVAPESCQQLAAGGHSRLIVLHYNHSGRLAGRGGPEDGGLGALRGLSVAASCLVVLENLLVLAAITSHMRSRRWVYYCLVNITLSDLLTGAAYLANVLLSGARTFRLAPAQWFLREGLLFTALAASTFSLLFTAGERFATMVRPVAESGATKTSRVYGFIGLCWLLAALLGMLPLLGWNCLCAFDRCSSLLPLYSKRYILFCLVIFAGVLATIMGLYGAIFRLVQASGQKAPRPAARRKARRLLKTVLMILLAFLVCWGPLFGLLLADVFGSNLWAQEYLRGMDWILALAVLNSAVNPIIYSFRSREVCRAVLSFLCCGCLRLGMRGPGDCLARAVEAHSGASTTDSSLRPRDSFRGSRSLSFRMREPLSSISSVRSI
The test is described as follows: Aequorin assay, agonist potency, S1P4. Conditions: agonist mode, aequorin luminescence. The procedure, abridged: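 Aequorin luminescence read over 90 s after adding coelenterazine h–loaded cells (5 μM, overnight, RT) to test compound in phenol red-free DMEM/F12 buffer containing 0.1% fatty acid-free BSA. Responses integrated, scaled to the 100% signal from 100 μM digitonin or 20 μM ATP, and fitted to a sigmoidal dose-response model.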

For test [1], the target named is T2, human EDG8 (S1PR5) receptor (Homo sapiens, UniProt Q9H228).
T2 construct: carries the transgenes human EDG8 (S1PR5) receptor (Acession number NP_110387.1); expressed in transfected cells; host or cells: CHO-A21-EDG8#12 (CHO clone co-expressing mitochondrial aequorin and chimaeric Gaqi5)
The test can be described thus: Aequorin assay, agonist potency, CHO-A21-EDG8#12 cells. Conditions: agonist mode, aequorin luminescence; read-out: S1P5 EC50 range #. A digest of the protocol:
(§1)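 CHO cells coexpressing receptor, mitochondrial aequorin and Gαqi5 (S1P3 pool: GNA16) were loaded overnight at RT with 5 μM coelenterazine h in 0.1% fatty-acid-free BSA buffer. Cells were injected onto compound, luminescence recorded 90 s and integrated, normalised to digitonin or 20 μM ATP; sigmoidal fit.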

The target of test [2] is T3, human EDG1 (S1PR1) receptor (Homo sapiens, UniProt P21453).
T3 construct: expressed in transfected cells; host or cells: CHO-A21-Edg1#17 (CHO clone co-expressing mitochondrial aequorin and chimaeric Gaqi5)
The test is described as follows: Aequorin assay, agonist potency, CHO-A21-Edg1#17 cells. Conditions: agonist mode, aequorin luminescence; read-out: S1P1 EC50. The procedure, abridged:
as §1

The structures appear in SMILES notation. pEC50: −log10 of the molar value.

T3 sequence (P21453 whole entry): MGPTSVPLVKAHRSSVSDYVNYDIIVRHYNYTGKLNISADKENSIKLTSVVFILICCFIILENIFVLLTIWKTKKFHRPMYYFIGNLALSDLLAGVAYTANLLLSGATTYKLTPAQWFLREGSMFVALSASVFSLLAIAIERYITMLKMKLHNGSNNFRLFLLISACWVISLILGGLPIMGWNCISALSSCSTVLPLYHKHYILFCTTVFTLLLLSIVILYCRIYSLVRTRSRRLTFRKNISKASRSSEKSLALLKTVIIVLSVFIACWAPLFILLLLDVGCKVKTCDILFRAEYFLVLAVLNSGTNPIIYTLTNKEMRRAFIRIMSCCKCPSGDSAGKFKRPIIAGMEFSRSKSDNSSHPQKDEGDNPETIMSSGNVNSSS
T2 sequence (Q9H228 whole entry): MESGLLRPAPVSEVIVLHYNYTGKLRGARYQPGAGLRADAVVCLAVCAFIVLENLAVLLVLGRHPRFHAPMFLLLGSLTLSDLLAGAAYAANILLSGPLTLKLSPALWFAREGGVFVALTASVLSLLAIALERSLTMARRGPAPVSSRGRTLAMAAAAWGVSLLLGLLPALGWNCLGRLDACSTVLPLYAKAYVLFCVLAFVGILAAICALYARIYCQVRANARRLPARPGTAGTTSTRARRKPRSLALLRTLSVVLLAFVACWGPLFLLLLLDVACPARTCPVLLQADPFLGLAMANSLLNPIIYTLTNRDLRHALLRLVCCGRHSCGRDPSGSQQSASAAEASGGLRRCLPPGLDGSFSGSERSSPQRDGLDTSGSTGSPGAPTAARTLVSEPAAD

For `O=C(O)[C@H]1C[C@@H](N2CC3(Cc4ccc(OCc5cc(Cl)ccc5Cl)cc4C3)C2)C1` [Example 90, (1s,3s)-3-(5′-((2,5-dichlorobenzyl)oxy)-1′,3′-dihydrospiro[azetidine-3,2′-inden]-1-yl)cyclobutanecarboxylic acid], the values for the pEC50 (at S1P4; in test [1]; in test [2]) were more than 6.00, 6.00 to 7.00 and less than 6.00, respectively.

As to `COc1cccc(Cl)c1COc1ccc2c(c1)CC1(C2)CN(CC(=O)O)C1` [Example 9, 2,2,2-trifluoroacetic acid compound with 2-(5′-((2-chloro-6-methoxybenzyl)oxy)-1′,3′-dihydrospiro[azetidine-3,2′-inden]-1-yl)acetic acid (1:1)], the negative-log EC50 (pEC50) at S1P4 was less than 6.00; in test [1], 6.00 to 7.00; in test [2], less than 6.00.

As for `COc1ccc(COc2ccc3c(c2)CC2(C3)CN(CC3(C(=O)O)CC3)C2)c(C)n1` [Example 121, 1-((5′-((6-methoxy-2-methylpyridin-3-yl)methoxy)-1′,3′-dihydrospiro[azetidine-3,2′-inden]-1-yl)methyl)cyclopropanecarboxylic acid], the pEC50 was less than 6.00 on S1P4, 5.00 to 6.00 in test [1] and less than 6.00 in test [2].

For `O=C(O)C1CC(N2CC3(Cc4ccc(OC5CCc6ccccc65)cc4C3)C2)C1` (stereo not drawn) [Example 104, 3-(5′-((2,3-dihydro-1H-inden-1-yl)oxy)-1′,3′-dihydrospiro[azetidine-3,2′-inden]-1-yl)cyclobutanecarboxylic acid], the results for the pEC50 (at S1P4; in test [1]; in test [2]) were more than 6.00, not below 8.00 and less than 6.00, respectively.

As to `N#Cc1ccc(COc2ccc3c(c2)CC2(C3)CN(CC3(C(=O)O)CC3)C2)cc1` [Example 142, 1-((5′-((4-cyanobenzyl)oxy)-1′,3′-dihydrospiro[azetidine-3,2′-inden]-1-yl)methyl)cyclopropanecarboxylic acid], the pEC50 was less than 6.00 at S1P4, 5.00 to 6.00 in test [1] and less than 6.00 in test [2].

In the case of `O=C(O)C1CC(N2CC3(Cc4ccc(OCC5CCCOC5)cc4C3)C2)C1` (stereo not drawn) [Example 5, 3-(5′-((tetrahydro-2H-pyran-3-yl)methoxy)-1′,3′-dihydrospiro[azetidine-3,2′-inden]-1-yl)cyclobutanecarboxylic acid], the pEC50 at S1P4 was less than 6.00; in test [1], 5.00 to 6.00; in test [2] it was less than 6.00.

For the compound `O=C(O)C1CC(N2CC3(Cc4ccc(C#Cc5ccc(OCC6CC6)nc5)cc4C3)C2)C1` (stereo not drawn) [Example 99, 3-(5′-((6-(cyclopropylmethoxy)pyridin-3-yl)ethynyl)-1′,3′-dihydrospiro[azetidine-3,2′-inden]-1-yl)cyclobutanecarboxylic acid], the pEC50 at S1P4 was less than 6.00; in test [1] it was 6.00 to 7.00; in test [2] it was more than 6.00.

For the compound `CC(C)Oc1ccc(C#Cc2ccc3c(c2)CC2(C3)CN(C3CC(C(=O)O)C3)C2)cn1` (stereo not drawn) [Example 96, 3-(5′-((6-isopropoxypyridin-3-yl)ethynyl)-1′,3′-dihydrospiro[azetidine-3,2′-inden]-1-yl)cyclobutanecarboxylic acid], the values for the pEC50 (at S1P4; in test [1]; in test [2]) were less than 6.00, 7.00 to 8.00 and more than 6.00, respectively.

Consider `Cc1cccc(F)c1COc1ccc2c(c1)CC1(C2)CN(CC2(C(=O)O)CC2)C1` [Example 42, 1-((5′-((2-fluoro-6-methylbenzyl)oxy)-1′,3′-dihydrospiro[azetidine-3,2′-inden]-1-yl)methyl)cyclopropanecarboxylic acid compound with 2,2,2-trifluoroacetic acid (1:1)], for which the pEC50 on S1P4 is more than 6.00; in test [1], 6.00 to 7.00; in test [2] it was less than 6.00.

With `COc1cccc(F)c1COc1ccc2c(c1)CC1(C2)CN(CC2(C(=O)O)CC2)C1` [Example 30, 1-((5′-((2-fluoro-6-methoxybenzyl)oxy)-1′,3′-dihydrospiro[azetidine-3,2′-inden]-1-yl)methyl)cyclopropanecarboxylic acid compound with 2,2,2-trifluoroacetic acid (1:1)], the pEC50 at S1P4 is less than 6.00; in test [1] it was 5.00 to 6.00; in test [2], less than 6.00.

As for `Cc1ccccc1CCOc1ccc2c(c1)CC1(C2)CN(CC2(C(=O)O)CC2)C1` [Example 134, 1-((5′-(2-methylphenethoxy)-1′,3′-dihydrospiro[azetidine-3,2′-inden]-1-yl)methyl)cyclopropanecarboxylic acid], the figures for the pEC50 (at S1P4; in test [1]; in test [2]) were more than 6.00, 5.00 to 6.00 and less than 6.00, respectively.

Take `O=C(O)CN1CC2(Cc3ccc(OCc4cccc5c4OCC5)cc3C2)C1` [Example 72, 2-(5′-((2,3-dihydrobenzofuran-7-yl)methoxy)-1′,3′-dihydrospiro[azetidine-3,2′-inden]-1-yl)acetic acid]: the pEC50 at S1P4 is more than 6.00; in test [1], 6.00 to 7.00; in test [2] it was less than 6.00.

As to `O=C(O)CN1CC2(Cc3ccc(OCc4c(F)cccc4Cl)cc3C2)C1` [Example 18, 2,2,2-trifluoroacetic acid compound with 2-(5′-((2-chloro-6-fluorobenzyl)oxy)-1′,3′-dihydrospiro[azetidine-3,2′-inden]-1-yl)acetic acid (1:1)], the pEC50 at S1P4 is more than 6.00; in test [1] it was not below 8.00; in test [2] it was less than 6.00.

In the case of `O=C(O)C1CC(N2CC3(Cc4ccc(OCCc5ccccc5C(F)(F)F)cc4C3)C2)C1` (stereo not drawn) [Example 105, 3-(5′-(2-(trifluoromethyl)phenethoxy)-1′,3′-dihydrospiro[azetidine-3,2′-inden]-1-yl)cyclobutanecarboxylic acid], the pEC50 was more than 6.00 on S1P4, 5.00 to 6.00 in test [1] and less than 6.00 in test [2].

With `O=C(O)C1(CN2CC3(Cc4ccc(OCC5CCCCC5)cc4C3)C2)CC1` [Example 126, 1-((5′-(cyclohexylmethoxy)-1′,3′-dihydrospiro[azetidine-3,2′-inden]-1-yl)methyl)cyclopropanecarboxylic acid], the pEC50 on S1P4 is more than 6.00; in test [1], 6.00 to 7.00; in test [2] it was less than 6.00.

With `O=C(O)C1CC(N2CC3(Cc4ccc(OCc5ccc(OCC6CC6)cc5)cc4C3)C2)C1` (stereo not drawn) [Example 84, 3-(5′-((4-(cyclopropylmethoxy)benzyl)oxy)-1′,3′-dihydrospiro[azetidine-3,2′-inden]-1-yl)cyclobutanecarboxylic acid], the figures for the pEC50 (at S1P4; in test [1]; in test [2]) were less than 6.00, 5.00 to 6.00 and less than 6.00, respectively.

Turning to `CC(C)Oc1ccc(C#Cc2ccc3c(c2)CC2(C3)CN(C3CC(C(=O)O)C3)C2)cc1` (stereo not drawn) [Example 97, 3-(5′-((4-isopropoxyphenyl)ethynyl)-1′,3′-dihydrospiro[azetidine-3,2′-inden]-1-yl)cyclobutanecarboxylic acid], the pEC50 is less than 6.00 on S1P4, not below 8.00 in test [1] and more than 6.00 in test [2].

As to `O=C(O)C1(CN2CC3(Cc4ccc(OCCc5ccccc5Cl)cc4C3)C2)CC1` [Example 58, 1-((5′-(2-chlorophenethoxy)-1′,3′-dihydrospiro[azetidine-3,2′-inden]-1-yl)methyl)cyclopropanecarboxylic acid], the pEC50 is more than 6.00 at S1P4, 6.00 to 7.00 in test [1] and less than 6.00 in test [2].

As for `O=C(O)[C@H]1C[C@H](N2CC3(Cc4ccc(OCc5cc(Cl)ccc5Cl)cc4C3)C2)C1` [Example 89, (1r,3r)-3-(5′-((2,5-dichlorobenzyl)oxy)-1′,3′-dihydrospiro[azetidine-3,2′-inden]-1-yl)cyclobutanecarboxylic acid], the pEC50 was more than 6.00 on S1P4, 7.00 to 8.00 in test [1] and less than 6.00 in test [2].

`COc1ccc(C#Cc2ccc3c(c2)CC2(C3)CN(CC3(C(=O)O)CC3)C2)c(C)c1` [Example 118, 1-((5′-((4-methoxy-2-methylphenyl)ethynyl)-1′,3′-dihydrospiro[azetidine-3,2′-inden]-1-yl)methyl)cyclopropanecarboxylic acid]: the pEC50 was more than 6.00 on S1P4, 5.00 to 6.00 in test [1] and less than 6.00 in test [2].

Consider `O=C(O)CN1CC2(Cc3ccc(C#CC4CCCCC4)cc3O2)C1` [Example 150, 2-(6′-(cyclohexylethynyl)-3′H-spiro[azetidine-3,2′-benzofuran]-1-yl)acetic acid], for which the negative logarithm of the EC50 (pEC50) at S1P4 is more than 6.00; in test [1], not below 8.00; in test [2] it was less than 6.00.

With `O=C(O)CN1CC2(Cc3ccc(OCc4ccccc4C(F)(F)F)cc3C2)C1` [Example 12, 2,2,2-trifluoroacetic acid compound with 2-(5′-((2-(trifluoromethyl)benzyl)oxy)-1′,3′-dihydrospiro[azetidine-3,2′-inden]-1-yl)acetic acid (1:1)], the pEC50 at S1P4 is more than 6.00; in test [1], 7.00 to 8.00; in test [2], less than 6.00.

One may read the pEC50 as the negative decadic logarithm of the EC50, by convention in mol/L.
